Experimental data published in patent publication US7150974B1, “Parathyroid hormone receptor binding method” (The General Hospital Corporation, priority 1991, dated 2006).

How the values were obtained:
[1] = molecular target: T1, opossum kidney PTH/PTHrp receptor clone, OK-O (Didelphis virginiana, UniProt P25107, I132F/S86P); assay: Radioreceptor assay, COS cells expressing OK-O; assay type: binding; conditions: FIG. 11
T1 construct: expressed in transfected cells; host or cells: COS cells, transient, plasmid OK-O (pcDNA I)
T1 sequence (P25107 27-585 S86P/I132F): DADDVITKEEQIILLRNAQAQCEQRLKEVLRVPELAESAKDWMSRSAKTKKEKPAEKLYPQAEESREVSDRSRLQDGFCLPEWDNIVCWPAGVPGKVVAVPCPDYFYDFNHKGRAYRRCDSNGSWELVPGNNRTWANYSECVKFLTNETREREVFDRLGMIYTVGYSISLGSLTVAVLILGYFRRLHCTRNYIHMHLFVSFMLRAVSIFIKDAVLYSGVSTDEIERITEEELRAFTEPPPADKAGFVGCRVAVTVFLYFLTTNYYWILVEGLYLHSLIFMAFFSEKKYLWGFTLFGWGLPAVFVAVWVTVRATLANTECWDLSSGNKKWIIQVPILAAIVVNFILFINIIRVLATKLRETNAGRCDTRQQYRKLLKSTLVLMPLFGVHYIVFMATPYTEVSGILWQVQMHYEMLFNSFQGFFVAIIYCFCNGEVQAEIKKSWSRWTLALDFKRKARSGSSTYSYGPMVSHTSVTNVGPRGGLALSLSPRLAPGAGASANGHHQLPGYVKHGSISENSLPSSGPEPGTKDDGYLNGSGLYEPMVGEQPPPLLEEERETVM
Experimental: [Nle^8,Nle^18,Tyr^34]bPTH-(1-34)amide (NlePTH), and [Tyr^36]PTHrP(1-36)amide(PTHrP) were iodinated with Na^125I (carrier free, New England Nuclear, Boston, Mass.) as previously reported (Segre et al., J. Biol. Chem. 254: 6980, 1979), and purified by reverse-phase HPLC. In brief, the labeled peptide was dissolved in 0.1% trifluoracetic acid (TFA), applied to a C18 Sep-pak cartridge (Waters Associates, Inc., Milford, Mass.) and eluted with a solution of 60% acetonitrile in 0.1% TFA. After lyophilization, the radioligand then was applied to C18-μBondapak column (3.9 mm×30 cm. Waters Associates) and eluted over 30 min with a linear gradient of 30-50% acetonitrile-0.1% TFA at a flow rate of 2 ml/min. The radioligand eluted in two peaks; the first peak, which eluted at approximately 38% acetonitrile, was used in these studies because it gave higher total and specific bindings. The specific activity was 500±75 mCi/mg, which corresponds to an average iodine-peptide ratio of 1.
COS-7 cells were grown in 15 cm plates in DMEM, 10% heat-inactivated […], 10 mg/L gentamycin until 80-90% confluent. Twenty-four hours after transfection by the DEAE/Dextran method (Sambrook et al., supra), with 1-2 μg of plasmid DNA, the cells were trypsinized and replated in multiwell plastic dishes (16 or 35 mm diameter, Costar, Cambridge, Mass.) at a cell concentration of 5×10^4 cells/cm^2). Cell number increased only slightly after transfection. After continuing culture for another 48 h, radiorecepter assays were performed. […]
Incubations were terminated by aspirating the buffer, and repeatedly (×3) washing the culture dishes, containing the adherent cells with chilled 0.9% NaCl solution, over a 15 sec period. Cell-bound radioactivity was recovered by the sequential addition (×3) of 1 N NaOH (200 μl) to each well. […] A second and third extraction with 1 N NaOH (200 μl) were combined with the first, and the total radioactivity was counted in a γ-spectrometer (Packard Instruments, Downers Grove, Ill.). […]

[2] = molecular target: T2, human kidney PTH/PTHrP receptor (Homo sapiens, UniProt Q03431, L389Q); assay: Intracellular free calcium, COS-7 cells expressing human receptor; assay type: cell-based
T2 construct: The full-length human kidney PTH/PTHrP receptor cDNA, HKrk, was constructed using the BamHI/PvuII fragment of PCR clone #2 and HK-2; expressed in transfected cells; host or cells: COS-7 cells, transient (DEAE/Dextran), pcDNAI
T2 sequence (Q03431 27-593 L389Q): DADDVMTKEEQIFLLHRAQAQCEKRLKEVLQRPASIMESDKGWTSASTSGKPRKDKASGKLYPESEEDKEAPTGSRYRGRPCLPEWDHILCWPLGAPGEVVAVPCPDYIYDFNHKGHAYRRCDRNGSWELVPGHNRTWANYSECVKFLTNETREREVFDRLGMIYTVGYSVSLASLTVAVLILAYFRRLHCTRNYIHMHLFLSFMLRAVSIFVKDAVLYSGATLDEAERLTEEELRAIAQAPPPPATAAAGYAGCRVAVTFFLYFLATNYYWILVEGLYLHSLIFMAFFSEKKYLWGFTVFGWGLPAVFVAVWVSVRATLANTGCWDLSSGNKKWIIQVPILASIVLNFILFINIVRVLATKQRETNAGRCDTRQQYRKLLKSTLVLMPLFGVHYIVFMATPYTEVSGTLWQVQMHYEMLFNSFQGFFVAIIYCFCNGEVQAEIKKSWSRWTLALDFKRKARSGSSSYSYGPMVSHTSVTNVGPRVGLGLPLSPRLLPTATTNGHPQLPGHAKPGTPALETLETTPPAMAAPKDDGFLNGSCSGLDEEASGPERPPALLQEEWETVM
Experimental: Details of the methodology are:
Coverslips plated with COS cells were incubated in Fura-2 AM loading buffer containing, in mM: HEPES (N-[2-Hydroxyethyl]piperazine-N′-[2-ethanesulfonic acid]), 20; CaCl2, 1; KCl 5; NaCl, 145; MgSO4, 0.5; NaHCO3, 25; K2HPO4, 1.4; glucose, 10; and Fura-2 AM 91-(2-5′-carboxyoxazol-2′-yl)-6-aminobenzofuran-5oxy-(2′-amino-5′-methylphenoxy)ethane-N,N,N′,N′-tetraaecetic acid acetomethoxy ester), 0.5; at 37° C. at pH7.4, aerated with 95% air and 5% CO2 for 45 minutes. Cells loaded with Fura-2 AM were then washed with a modified Krebs-Heinseleit (KH) buffer containing, in mM: HEPES, 20; CaCl2, 1; KCl, 5; NaCl, 145; MgSO4, 0.5; Na2HPO4, 1; glucose, 5; pH7.4. To check that cleavage of the ester occurred, the excitation spectra after different times of Fura-2 AM incubation were measured.
To measure fluorescence of individual cells, the cover slips were placed in a microscope tissue chamber (Biophysica Technologies, Inc., MD). The chamber consisted of a shallow, sloped compartment made of Teflon with a silicone rubber seal. The cover slips served as the bottom of the chamber. A heater/cooler ring was encased in the silicone rubber which sealed the coverslip in place.

## [Nle^8,18, Tyr^34]bPTH(1-34)amide
[1]
  inhibition of 125I-PTHrP binding by competitor: inhibited
[2]
  increase in intracellular free calcium, PTH(1-34) compared with PTHrP(1-36): to the same extent
